The values that follow come from patent US6372449B1, “Opthalmic methods and uses” (priority 1999, dated 2002).

Series [1] deals with ocular structures. The conditions noted are these: prior-art dyes, general statement; cited from earlier work.
Series [2] relates to epiretinal and internal limiting membrane of the retina. Put plainly: Staining of the inner limiting membrane with trypan blue solution during pars plana vitrectomy. Format: in vivo, patient. The conditions noted are these: 0.1% w/w in physiological saline, instilled, left for 30 seconds, aspirated and irrigated; Patients A and B. The text has this: In respect of retinal surgery for the removal of aberrant membranes or for the peeling of epiretinal and internal limiting membranes of the retina, the vitreous gel of the eye is removed by a technique known as pars plana vitrectomy, with stripping of the outer (cortical) vitreous. In place of the vitreous gel, infusion fluid is introduced into the eye via an infusion port. The inner limiting membrane may then be stained with trypan blue solution (for example 0.1% w/w) instilled with a fine silicone-tipped extrusion needle, left for 30 seconds to stain the membrane, aspirated, followed by irrigation of the area with balanced salt (physiological) solution. Peeling of the membrane proceeds and is greatly facilitated because of improved visualization of the extent of the membrane. The procedure is then completed in standard fashion with fluid-gas exchange.
Patient A required peeling of epiretinal and internal limiting membrane of the retina as part of the surgical management of premacular fibrosis and macular hole conditions.
Patient B is a diabetic suffering from severe diabetic retinopathy, with proliferative vitreo retinopathy.
A 0.1% w/w solution of trypan blue in physiological saline is prepared.
In each patient the vitreous gel of the eye is removed by pars plana vitrectomy an established procedure in the art, which involves stripping of the outer (cortical) vitreous. […]

Series [3] relates to ocular structures. Nature of the series: Toxicity and permanence of staining of dyes used in the eye. The conditions noted are these: trypan blue, general statement. An excerpt: A number of dyes have been used in the eye to identify vital structures, examples of dyes used include indocyanin green, rose bengal, gentian violet and methylene blue.
In a further series the test system is trabecular meshwork. Nature of the series: Marking of the trabecular meshwork with trypan blue before laser treatment in glaucoma. Format: in vivo. The conditions noted are these: Patient C. The text has this: Eye pressure is regulated in part by flow of ocular fluid (aqueous humour) through a biological valve, known as the trabecular meshwork. In glaucoma, a pathological condition where the eye pressure is raised, the eye pressure may be lowered by application of a laser energy source to the trabecular meshwork. In the prior art the success of this technique generally depends upon the presence of sufficient natural pigmentation of the trabecular meshwork which will absorb the laser energy. Using trypan blue to mark the trabecular meshwork improves identification of this structure, and the uptake of laser energy. A trypan blue solution is instilled into the eye in the location of the trabecular meshwork, and after a short time period such as from 10 seconds to one minute, the trypan blue solution is removed and the area generally irrigated to remove excess trypan blue. The now marked trabecular meshwork can be readily visually distinguished, and laser application can take place. Other ocular structures may be marked in the same manner so as to enable identification and if necessary surgical or other treatment.
Patient C is a glaucoma sufferer who has elevated eye pressure. 0.1% trypan blue is instilled into the eye of patient C through a cannular, introducing the trypan blue solution in the area with trabecular meshwork.

With `CC1(C)C(/C=C/C=C/C=C/C=C2\N(CCCCS(=O)(=O)[O-])c3ccc4ccccc4c3C2(C)C)=[N+](CCCCS(=O)(=O)[O-])c2ccc3ccccc3c21.[Na+]` [indocyanin green], in the series with ocular structures [1], the “toxicity to ocular structures” value is “toxic to ocular structures”.
For `Cc1cc(-c2ccc(/N=N/c3c(S(=O)(=O)O)cc4cc(S(=O)(=O)O)cc(N)c4c3O)c(C)c2)ccc1/N=N/c1c(S(=O)(=O)O)cc2cc(S(=O)(=O)O)cc(N)c2c1O` [trypan blue], in series [2], the “visual identification of membranes after staining” value was “readily identified”. In the series with ocular structures [3], the “reversibility of staining of eye structures” value is on record as “does not irreversibly stain eye structures” and the “toxicity in the eye” value is “non-toxic”. Also, the “visualization of the trabecular meshwork” value in the series on trabecular meshwork (0.1% trypan blue instilled through a cannular, glaucoma) is listed as “visualized by simple visual identification”. In the series on trabecular meshwork (0.1% trypan blue marking followed by laser light, elevated eye pressure), the “eye pressure after laser treatment” value is “Successful lowering of eye pressure”. For the same compound, the “uptake of laser energy” value in the series with trabecular meshwork (0.1% trypan blue, after irrigation, area subject to laser light) is on record as “improving uptake of laser energy”.
As for `CN(C)c1ccc(C(=C2C=CC(=[N+](C)C)C=C2)c2ccc(N(C)C)cc2)cc1` [gentian violet], the “toxicity to ocular structures” value in the series on ocular structures [1] was “toxic to ocular structures”.
For the compound `CN(C)c1ccc2nc3ccc(=[N+](C)C)cc-3sc2c1` [methylene blue], the “toxicity to ocular structures” value in the series with ocular structures [1] is reported as “toxic to ocular structures”.
Consider `O=C([O-])c1c(Cl)c(Cl)c(Cl)c(Cl)c1-c1c2cc(I)c(=O)c(I)c-2oc2c(I)c([O-])c(I)cc12.[Na+].[Na+]` [rose bengal], for which the “toxicity to ocular structures” value in the series with ocular structures [1] was “toxic to ocular structures”.
